Assay results: US11414424B2, “Cardiac sarcomere inhibitors” (Cytokinetics, Inc., priority 2018, dated 2022)

Tested on: bovine cardiac myofibrils
Assay: Myofibril assay: PK/LDH-coupled steady-state ATPase activity of skinned bovine cardiac myofibrils
Format: biochemical
Details: Ca2+ activating to 75% of maximal rate
How it was run: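 Steady-state ATPase of detergent-skinned bovine left-ventricular myofibrils (1 mg/mL), PK/LDH-coupled NADH read at 340 nm, in PIPES/MgCl2 buffer pH 6.8 with 50 μM ATP, 0.6 mM EGTA and CaCl2 set for 50% or 75% activation. Inhibition of activity measured.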

| SMILES | CDMF75 IC15 [µM] |
| --- | --- |
| CC(C)N1CC(=O)N(Cc2ccc(C(F)(F)F)cc2)C2(CN(c3cc[nH]c(=O)c3)C2)C1=O [Compound 48, 8-isopropyl-2-(2-oxo-1,2-dihydropyridin-4-yl)-5-(4-(trifluoromethyl)benzyl)-2,5,8-triazaspiro[3.5]-nonane-6,9-dione] | 1.6 |
| COc1ccc(N2CC3(C2)C(=O)N(C(C)C)CC(=O)N3Cc2ccc(Cl)cc2)nn1 [Compound 51, 5-(4-chlorobenzyl)-8-isopropyl-2-(6-methoxypyridazin-3-yl)-2,5,8-triazaspiro-[3.5]nonane-6,9-dione] | 5.7 |
| CC(C)N1CC(=O)N(Cc2ccc(Cl)cc2)C2(CN(c3ccc(C(F)(F)F)nn3)C2)C1=O [Compound 53, 5-(4-chlorobenzyl)-8-isopropyl-2-(6-(trifluoromethyl)pyridazin-3-yl)-2,5,8-triazaspiro-[3.5]nonane-6,9-dione] | 14.7 |
| CC(C)N1CC(=O)N(Cc2ccc(Cl)cc2)C2(CN(c3ccc(C(N)=O)nn3)C2)C1=O [Compound 54, 6-(5-(4-chlorobenzyl)-8-isopropyl-6,9-dioxo-2,5,8-triazaspiro[3.5]-nonan-2-yl)pyridazine-3-carboxamide] | 7.8 |
| CCN1CC(=O)N(Cc2ccc(C(F)(F)F)cc2)C2(CN(c3ccc(C#N)cn3)C2)C1=O [Compound 57, 6-(8-ethyl-6,9-dioxo-5-(4-(trifluoromethyl)benzyl)-2,5,8-triazaspiro[3.5]-nonan-2-yl)nicotinonitrile] | 33.3 |
| N#Cc1ccc(N2CC3(C2)C(=O)N(C2CCCC2)CC(=O)N3Cc2ccc(C(F)(F)F)cc2)nc1 [Compound 58, 6-(8-cyclopentyl-6,9-dioxo-5-(4-(trifluoromethyl)benzyl)-2,5,8-triazaspiro[3.5]-nonan-2-yl)nicotinonitrile] | 4.1 |
| CC(C)CN1CC(=O)N(Cc2ccc(C(F)(F)F)cc2)C2(CN(c3ccc(C#N)cn3)C2)C1=O [Compound 59, 6-(8-isobutyl-6,9-dioxo-5-(4-(trifluoromethyl)benzyl)-2,5,8-triazaspiro[3.5]-nonan-2-yl)nicotinonitrile] | 23.4 |
| N#Cc1ccc(N2CC3(C2)C(=O)N(C2CCCCC2)CC(=O)N3Cc2ccc(C(F)(F)F)cc2)nc1 [Compound 62, 6-(8-cydohexyl-6,9-dioxo-5-(4-(trifluoromethyl)-benzyl)-2,5,8-triazaspiro[3.5]nonan-2-yl)nicotinonitrile] | 1.8 |
| CC(C)N1CC(=O)N(Cc2ccc(Cl)cc2)C2(CN(c3ccc(C#N)cn3)C2)C1=O [Compound 63, 6-(5-(4-chlorobenzyl)-8-isopropyl-6,9-dioxo-2,5,8-triazaspiro[3.5]nonan-2-yl)nicotinonitrile] | 5.1 |
| CNC(=O)N1CC2(C1)C(=O)N(C(C)C)CC(=O)N2Cc1ccc(Cl)cc1 [Compound 65, 5-(4-chlorobenzyl)-8-isopropyl-N-methyl-6,9-dioxo-2,5,8-triazaspiro[3.5]nonane-2-carboxamide] | 9.8 |
| CC(C)N1CC(=O)N(Cc2ccc(Cl)cc2)C2(CN(C(=O)Nc3cnn(C)c3)C2)C1=O [Compound 66, 5-(4-chlorobenzyl)-8-isopropyl-N-(1-methyl-1H-pyrazol-4-yl)-6,9-dioxo-2,5,8-triazaspiro[3.5]-nonane-2-carboxamide] | 17.6 |
| CNC(=O)N1CC2(C1)C(=O)N(C(C)C)CC(=O)N2Cc1ccc(C(F)(F)F)cc1 [Compound 67, 8-isopropyl-N-methyl-6,9-dioxo-5-(4-(trifluoromethyl)benzyl)-2,5,8-triazaspiro[3.5]-nonane-2-carboxamide] | 6.0 |
| CC(C)N1CC(=O)N(Cc2ccc(C(F)(F)F)cc2)C2(CN(C(N)=O)C2)C1=O [Compound 68, 8-isopropyl-6,9-dioxo-5-(4-(trifluoromethyl)benzyl)-2,5,8-triazaspiro[3.5]-nonane-2-carboxamide] | 9.2 |
| CC(C)N1CC(=O)N(Cc2ccc(C(F)(F)F)cc2)C2(CN(C=O)C2)C1=O [Compound 69, 8-isopropyl-6,9-dioxo-5-(4-(trifluoromethyl)benzyl)-2,5,8-triazaspiro[3.5]-nonane-2-carbaldehyde] | 15.4 |
| CNC(=O)N1CC2(C1)C(=O)N(C1CCCC1)CC(=O)N2Cc1ccc(C(F)(F)F)cc1 [Compound 70, 8-cyclopentyl-N-methyl-6,9-dioxo-5-(4-(trifluoromethyl)benzyl)-2,5,8-triazaspiro[3.5]-nonane-2-carboxamide] | 9.5 |
| CC(C)N1CC(=O)N(Cc2ccc(Cl)cc2)C2(CCN(c3ccncn3)C2)C1=O (stereo not shown) [Compound 71, 6-(4-chlorobenzyl)-9-isopropyl-2-(pyrimidin-4-yl)-2,6,9-triazaspiro-[4.5]decane-7,10-dione] | 4.8 |

Continued, values first:

| CDMF75 IC15 [µM] | SMILES |
| --- | --- |
| 3.7 | CC(C)N1CC(=O)N(Cc2ccc(Cl)cc2)C2(CN(c3nc4c(s3)COCC4)C2)C1=O [Compound 47, 5-(4-chlorobenzyl)-2-(6,7-dihydro-4H-pyrano[4,3-d]thiazol-2-yl)-8-isopropyl-2,5,8-triazaspiro[3.5]-nonane-6,9-dione] |
| 9.3 | Cc1cc(N2CC3(C2)C(=O)N(C(C)C)CC(=O)N3Cc2ccc(Cl)cc2)cc(C)n1 [Compound 49, 5-(4-chlorobenzyl)-2-(2,6-dimethylpyridin-4-yl)-8-isopropyl-2,5,8-triazaspiro[3.5]nonane-6,9-dione] |
| 5.8 | CC(C)N1CC(=O)N(Cc2ccc(Cl)cc2)C2(CN(c3ccc(Cl)nn3)C2)C1=O [Compound 50, 5-(4-chlorobenzyl)-2-(6-chloropyridazin-3-yl)-8-isopropyl-2,5,8-triazaspiro[3.5]nonane-6,9-dione] |
| 17.8 | CC(C)N1CC(=O)N(Cc2ccc(Cl)cc2)C2(CN(c3ccc(=O)[nH]n3)C2)C1=O [Compound 52, 5-(4-chlorobenzyl)-8-isopropyl-2-(6-oxo-1,6-dihydropyridazin-3-yl)-2,5,8-triazaspiro[3.5]-nonane-6,9-dione] |
| 6.7 | Cc1ccc(N2CC3(C2)C(=O)N(C(C)C)CC(=O)N3Cc2ccc(Cl)cc2)nn1 [Compound 55, 5-(4-chlorobenzyl)-8-isopropyl-2-(6-methylpyridazin-3-yl)-2,5,8-triazaspiro[3.5]-nonane-6,9-dione] |
| 18.3 | CC(C)N1CC(=O)N(Cc2ccc(Cl)cc2)C2(CN(c3cnc(Cl)cn3)C2)C1=O [Compound 56, 5-(4-chlorobenzyl)-2-(5-chloropyrazin-2-yl)-8-isopropyl-2,5,8-triazaspiro[3.5]nonane-6,9-dione] |
| 14.3 | CC(C)N1CC(=O)N(Cc2ccc(Cl)cc2)C2(CN(c3cc(Cl)cnn3)C2)C1=O [Compound 60, 5-(4-chlorobenzyl)-2-(5-chloropyridazin-3-yl)-8-isopropyl-2,5,8-triazaspiro[3.5]nonane-6,9-dione] |
| 22.9 | CC(C)N1CC(=O)N(Cc2ccc(Cl)cc2)C2(CN(c3cnnc(Cl)c3)C2)C1=O [Compound 61, 5-(4-chlorobenzyl)-2-(6-chloropyridazin-4-yl)-8-isopropyl-2,5,8-triazaspiro[3.5]nonane-6,9-dione] |
| 23.6 | COC(=O)N1CC2(C1)C(=O)N(C(C)C)CC(=O)N2Cc1ccc(Cl)cc1 [Compound 64, methyl 5-(4-chlorobenzyl)-8-isopropyl-6,9-dioxo-2,5,8-triazaspiro[3.5]-nonane-2-carboxylate] |
